{"source": "patent US20120058504A1", "about": "“METHODS AND APPARATUS FOR DIELECT[…] AND MEASUREMENT OF SINGLE CELLS OR OTHER PARTICLES IN MI[…]” (SIMON FRASER UNIVERSITY, priority 2009, published 2012)", "key": {"[1]": {"test_system": "MDR leukemia cancer cell (CEM VLB)", "assay": "DNR accumulation and MDR reversal in a single cell, DEP-based microfluidic chip (Chip IV), fluorescence measurement", "conditions": "DNR 35 μM, before CsA was delivered, 100-200 s, 35° C.", "description": "Furthermore, DEP conditions were optimized to move a single multidrug resistant cancer cell 43 during fluorescence measurement using Chip TV (FIG. 20). Cell 43 was transferred out of fluorescent detection window 47 and back into detection window 47 by switching the voltage between electrodes AB and electrodes BC. When cell 43 was moved out of detection window 47, only the background (Fbackground) was measured. When cell 43 was moved back into detection window 47, the total fluorescence (Ftotal) was measured. By background correction, the absolute fluorescence of cell 43 (Fcell=Ftotal−Fbackground) was obtained. At the same time, a chemo-therapeutic drug, daunorubicin (DNR) was delivered to cell retention region 30 via solution reservoir 18B and microchannel 20B. The uptake of DNR inside a single MDR cancer cell 43 (CEM VLB) was monitored. The measurement results are depicted in FIG. 20b, showing many cycles of cell fluorescence (peaks) and troughs (background). […]\nAfter DEP-based single cell chip 10 (Chip IV, FIG. 20) was used to move leukemia cancer cell 43 into and out of detection window 47 during fluorescence measurement for anticancer drug (for example, daunorubicin (DNR)) accumulation inside cell 43, chip 10 was further used for MDR reversal studies at an elevated temperature (35° C.). […]"}, "CEM VLB cell": {"test_system": "CEM VLB cell", "assay": "DNR accumulation in a single adhered cell, SASCA method (chip without DEP electrodes), fluorescence measurement", "type": "cell-based", "conditions": "chip translated, α-MEM medium", "description": "(b) The fluorescent measurement of the adhered cell when the chip was translated into the measurement window (the peak provides the total fluorescence) and out of the measurement window (the baseline provides the background).\nThe SASCA method was performed for comparison with the DEP-based method. The SASCA method was performed in a chip without DEP electrodes. Cell 43 was moved into and out detection window 47 and at the same time DNR was delivered to cell retention region 30 (FIG. 21). In the SASCA method, cell movement was achieved by moving the chip with cell 43 which adheres to the bottom surface of cell retention region 30 in the chip."}}, "data": [{"compound": "COc1cccc2c1C(=O)c1c(O)c3c(c(O)c1C2=O)C[C@@](O)(C(C)=O)C[C@@H]3O[C@H]1C[C@H](N)[C@H](O)[C@H](C)O1", "note": "[DNR, daunorubicin]", "values": [{"measurement": "DNR accumulation in cell (cell fluorescence, peaks minus troughs)", "setting": "[1]", "value": "very little DNR accumulation"}, {"measurement": "DNR accumulation in cell (fluorescence of cell over measurement time)", "setting": "CEM VLB cell", "value": "accumulated inside the cell"}]}]}
